Measured values published in patent publication US20150119410A1, “BIOMARKERS OF RESPONSE TO NAE INHIBITORS” (MILLENNIUM PHARMACEUTICALS, INC., priority 2011, published 2015).

Tests used:
Assay type in all cases: cell-based
8505C = assay: Cell line panel 1 viability screen; settings: 8505C (thyroid)
Experimental: (§1) To support clinical development and identify potential biomarkers of tumor sensitivity or resistance, two large cancer cell line panels (Panel 1, N=653 (McDermott et al. (2007) PNAS 104:19936-19941); Panel 2, N=240 (O'Day et al. (2010) Fourth AACR International Conference on Molecular Diagnostics in Cancer Therapeutic Development)) were treated with MLN4924 and cell viability data (IC50, EC50, and POC—Percentage of Control) were generated.
(§2) Panel 1 (McDermott et al., supra). The cell lines were exposed to three MLN4924 concentrations (20 nM, 200 nM, and 2 μM) for 72 hours. Viability, i.e., cell number, was quantified by measuring fluorescence of a cell-permeant nucleic acid stain. Mean of triplicate values for each sample were taken and compared to DMSO control to calculate percentage of control. In the results, control or no activity value is given a value of about 1, sensitivity is indicated by a value less than 1, with 0 as death of the entire cell population and resistance indicated by a value greater than 1. A continuum of viability values was obtained for each concentration, so some values were selected as cut-offs for final determination of sensitivity or resistance. For example, median POC values of less than the median value of all POC's recorded in the panel (<0.34) indicated sensitivity, values of 0.34 to 0.75 indicated borderline sensitivity, values greater than the 3rd quartile of all POC's in the panel (>0.75) insensitivity or resistance. […] Final judgment of cell line as sensitive, insensitive or resistant was determined by its viability at 2 μM.

CAPAN-1 [1] = assay: Cell line panel 1 viability screen; settings: CAPAN-1 (pancreas)
Experimental: as §1, §2

COLO-678 = assay: Cell line panel 1 viability screen; settings: COLO-678 (large_intestine)
Experimental: as §1, §2

GAMG = assay: Cell line panel 1 viability screen; settings: GAMG (central nervous system)
Experimental: as §1, §2

HGC-27 = assay: Cell line panel 1 viability screen; settings: Homo sapiens; HGC-27 (stomach); 2 μM MLN4924, 72 hours; DMSO control about 1
Experimental: as §1, §2

HT55 = assay: Cell line panel 1 viability screen; settings: Homo sapiens; HT55 (intestine); 2 μM MLN4924, 72 hours; DMSO control about 1
Experimental: as §1, §2

KU-19-19 = assay: Cell line panel 1 viability screen; settings: KU-19-19 (urinary_tract)
Experimental: as §1, §2

KYSE-150 = assay: Cell line panel 1 viability screen; settings: KYSE-150 (oesophagus)
Experimental: as §1, §2

MKN45 = assay: Cell line panel 1 viability screen; settings: MKN45 (stomach)
Experimental: as §1, §2

NCI-N87 = assay: Cell line panel 1 viability screen; settings: NCI-N87 (stomach)
Experimental: as §1, §2

NCl-H1703 = assay: Cell line panel 1 viability screen; settings: NCl-H1703 (lung NSCLC); 2 μM MLN4924, 72 hours; DMSO control about 1
Experimental: as §1, §2

NCl-H630 = assay: Cell line panel 1 viability screen; settings: NCl-H630 (intestine); 2 μM MLN4924, 72 hours; DMSO control about 1
Experimental: as §1, §2

SK-MEL-30 = assay: Cell line panel 1 viability screen; settings: Homo sapiens; SK-MEL-30 (skin); 2 μM MLN4924, 72 hours; DMSO control about 1
Experimental: as §1, §2

SW1417 = assay: Cell line panel 1 viability screen; settings: Homo sapiens; SW1417 (intestine); 2 μM MLN4924, 72 hours; DMSO control about 1
Experimental: as §1, §2

SW620 = assay: Cell line panel 1 viability screen
Experimental: as §1, §2

BV-173 = assay: Cell line panel 2 high-content screen; settings: BV-173 (haematopoietic, lymphoid_tissue)
Experimental: as §1
(§3) Panel 2 (Ricerca Biosciences, Inc., Bothell, Wash.). MLN4924 was added in half-log dilutions for 10 concentrations and treated for 72 hours. High-content cell screening by fluorescence microscopy included image analysis to generate several types of data. Results included EC50 values (after measurement of cell numbers, the EC50 concentration was calculated from the inflection point of a curve of percent of control (POC) against log of MLN4924 concentration), IC50 values (from the POC-log MLN4924 plot, IC50 is the concentration at 50% maximal possible response), apoptosis (measurement of activation of caspase 3 plotted against log of MLN4924 concentration, determined as the concentration for >5 fold induction), and mitotic activity (determined by measuring the fold increase of phospho-histone 3). A comparison of EC50 to IC50 (FIG. 3) allowed assignment of cell lines to sensitive, insensitive or resistant. Final identification of a cell line as sensitive or resistant was based on the EC50 values. The cutoff for sensitivity is a median EC50 of less than the median value of all POC's recorded in the panel (<0.36), borderline sensitivity was associated with median EC50 of 0.36 to 1.67 and insensitive or resistant cell lines were identified by EC50 greater than the 3rd quartile of all POC's in the panel (>1.67).

CAPAN-1 [2] = assay: Cell line panel 2 high-content screen; settings: Homo sapiens; CAPAN-1 (pancreas); 72 hours
Experimental: as §1, §3

LS1034 = assay: Cell line panel 2 high-content screen; settings: Homo sapiens, LS-1034; LS1034 (intestine); 72 hours
Experimental: as §1, §3

[3] = Homo sapiens, 2 μM MLN4924, 72 hours, DMSO control about 1

Structure (SMILES): NS(=O)(=O)OC[C@@H]1C[C@@H](n2ccc3c(N[C@H]4CCc5ccccc54)ncnc32)C[C@@H]1O [MLN4924, ((1S,2S,4R)-4-{4-[(1S)-2,3-dihydro-1H-inden-1-ylamino]-7H-pyrrolo[2,3-d]pyrimidin-7-yl}-2-hydroxycyclopentyl)methyl sulphamate]
- Phenotype (8505C; NF2 mutant): sensitive (median POC values of less than the median value of all POC's recorded in the panel (<0.34) indicated sensitivity)
- viability at 2 µM (8505C; [3]): 14.1%
- Phenotype (CAPAN-1 [1]; SMAD4 mutant): sensitive?
- viability at 2 µM (CAPAN-1 [1]; [3]): 14.7%
- Phenotype (COLO-678; SMAD4 mutant): resistant (values greater than the 3rd quartile of all POC's in the panel (>0.75) insensitivity or resistance)
- viability at 2 µM (COLO-678; [3]): 81.4%
- Phenotype (GAMG; SMAD4 mutant): sensitive (median POC values of less than the median value of all POC's recorded in the panel (<0.34) indicated sensitivity)
- viability at 2 µM (GAMG; [3]): 7.21%
- viability at 2 µM (HGC-27): 12.9%
- viability at 2 µM (HT55): 51.4%
- viability at 2 µM (KU-19-19; [3]): 5.8%
- Phenotype (KU-19-19; KDM6A mutant): sensitive (median POC values of less than the median value of all POC's recorded in the panel (<0.34) indicated sensitivity)
- viability at 2 µM (KYSE-150; [3]): 12.8%
- Phenotype (KYSE-150; SMAD4 mutant): sensitive (median POC values of less than the median value of all POC's recorded in the panel (<0.34) indicated sensitivity)
- viability at 2 µM (MKN45; Homo sapiens, MKN-45, 2 μM MLN4924, 72 hours, DMSO control about 1): 36.1%
- Phenotype (MKN45; SMAD4 mutant): insensitive (values of 0.34 to 0.75 indicated borderline sensitivity)
- viability at 2 µM (NCI-N87; [3]): 14.6%
- Phenotype (NCI-N87; SMAD4 mutant): sensitive (median POC values of less than the median value of all POC's recorded in the panel (<0.34) indicated sensitivity)
- viability at 2 µM (NCl-H1703): 11%
- viability at 2 µM (NCl-H630): 75%
- viability at 2 µM (SK-MEL-30): 77.3%
- viability at 2 µM (SW1417): 63.7%
- viability at 2 µM (SW620; Homo sapiens, SW-620, SW620 (intestine), 2 μM MLN4924, 72 hours, DMSO control about 1): 49.3%
- Phenotype (SW620; SW620 (large_intestine), SMAD4 mutant): insensitive (values of 0.34 to 0.75 indicated borderline sensitivity)
- Phenotype (BV-173; KDM6A mutant): sensitive (The cutoff for sensitivity is a median EC50 of less than the median value of all POC's recorded in the panel (<0.36))
- EC50 (BV-173; Homo sapiens, 72 hours): 131 nM
- EC50 (CAPAN-1 [2]): 365 nM
- EC50 (LS1034): 3760 nM
